For one data set, the system named is Meloidogyne incognita. Briefly: Test against Meloidogyne spp. (soil pot test). The class given is in vivo. To be noted: soil contaminated with Meloidogyne incognita, final concentration 50 ppm; tomato (Kurihara) in pots, greenhouse 4 weeks; from root knot index. The method, then:
Test Against Meloidogyne spp. (Soil Pot Test)
Preparation of Test Agent:
1 Part of the active compound is impregnated to 99 parts of pumice to obtain fine granules.
The active compound prepared as mentioned above is added to soil contaminated with Meloidogyne incognita to a final concentration of 50 ppm and then homogeneously mixed by stirring. Then a pot (1/5000 are) was filled with the soil. About 20 seeds of tomato (variety: Kurihara) were sown per pot. After cultivation in a greenhouse for 4 weeks, they were carefully pulled out not to damage the root and the root knot index and the controlling effect of the compound tested were determined as follows:
Degree of damage 0: No knot was formed (Complete control).
1: A few knots were formed.
2: Knots were formed to a medium extent.
3: Knots were formed to an intense extent.
4: Knots were formed to the most intense extent (which corresponds to non-treatment).
Based on the degree of damage acording to the aforementioned standard (0-4), the root knot index can be determined as follows (Equation 1) [formula]
The controlling effect which can be achieved by applying compounds according to the present invention can then be determined as follows (Equation 2): [formula]
The evaluation of the controlling effect towards nematodes is then done by connecting the values of the controlling effect with the following standards (a-d): […]

By melting point is commonly meant the temperature of the solid-liquid transition. With `CCCCCCc1cc(-c2cccs2)n[nH]1`, the melting point is 53 to 55 °C.

`ClCCOc1cc(-c2cccs2)n[nH]1`: the melting point is 134 to 138 °C.

As to `Cc1cc(-c2cccs2)n[nH]1`, the melting point was 133 to 135 °C.

Compound `Oc1cc(-c2cccs2)n[nH]1` came in with a melting point of 144 to 146 °C.

`CCCCc1cc(-c2cccs2)n[nH]1` [Compound 82, 3-(2-thienyl)-5-n-butylpyrazole] showed a melting point of 47 to 48 °C. Besides, in the data set on Meloidogyne incognita, the “Evaluation of controlling effect” value is on record as “a (Controlling effect 100-71%)”.

`CCCCCc1cc(-c2cccs2)n[nH]1` [Compound 83, 3-(2-thienyl)-5-n-pentylpyrazole] gave a melting point of 68 to 73 °C. In addition, the “Evaluation of controlling effect” value in the data set with Meloidogyne incognita is “a (Controlling effect 100-71%)”.

The record behind these values is US6593358B1, “Thienyl-pyrazoles and their use for controlling pests” (Nihon Bayer Agrochem K.K., priority 1999, dated 2003).
